Reference: ChEMBL document CHEMBL5055641, “First Total Synthesis and Structure-Activity Relationship of Iheyamide A, an Antitrypanosomal Linear Peptide Isolated from a Dapis sp. Marine Cyanobacterium” (J Nat Prod, 2021)

What was measured:
[1] = tested on: Trypanosoma brucei rhodesiense; test: Antitrypanosomal activity against Trypanosoma brucei rhodesiense IL-1501 assessed as inhibition of parasitic growth incubated for 69 hrs by resazurin dye based fluorescence assay; format: functional, organism-based; conditions: IL-1501, 69 h
[2] = tested on: WI-38; test: Cytotoxicity against human WI-38 cells assessed as inhibition of cell proliferation incubated for 72 hrs by MTT assay; format: cell-based; conditions: WI-38, 72 h

Compound	IC50 [1] [µM]	IC50 [2] [µM]
COC1=CC(=O)N[C@H]1C(C)C	35	> 50
CC[C@H](C)[C@@H](C(=O)N1CCC[C@@H]1C(=O)N1C(=O)C=C(OC)[C@@H]1C(C)C)N(C)C(=O)[C@@H]1CCCN1C(=O)[C@H](C(C)C)N(C)C(=O)[C@@H](Cc1ccccc1)NC(=O)[C@H](Cc1ccccc1)N(C)C	1.8	> 20
CC[C@H](C)[C@H](NC)C(=O)N1CCCC1C(=O)N1C(=O)C=C(OC)[C@@H]1C(C)C (single isomer, unassigned)	24	> 50
CC[C@H](C)[C@@H](C(=O)N1CCCC1C(=O)N1C(=O)C=C(OC)[C@@H]1C(C)C)N(C)C(=O)[C@@H]1CCCN1C(=O)[C@@H](NC)C(C)C (single isomer, unassigned)	17	> 50
N=C(N)c1ccc(OCCCCCOc2ccc(C(=N)N)cc2)cc1 [PENTAMIDINE]	0.005	–

Second part, led by results:

IC50 [1] [µM]	Compound	IC50 [2] [µM]
33	COC1=CC(=O)N(C(=O)C2CCCN2)[C@H]1C(C)C (single isomer, unassigned)	> 50
15	CC[C@H](C)[C@@H](C(=O)N1CCCC1C(=O)N1C(=O)C=C(OC)[C@@H]1C(C)C)N(C)C(=O)[C@@H]1CCCN1 (single isomer, unassigned)	> 50
